Reference: article PMC10165932, “Tripeptides conjugated with thiosemicarbazones: new inhibitors of tyrosinase for cosmeceutical use” (Journal of Enzyme Inhibition and Medicinal Chemistry, 2023)
Values joined by “and” are separate entries in the source; they are usually repeats but may differ in a detail not shown here. Equal values may be shown once. Read-outs that look alike come from different tables or passages of the source. Where a SMILES comes first, the peptide text is derived from it.

Legend:
[1] = tested on: B16F0 murine melanoma cell line; assay: cells; type: cell-based; conditions: for % Of melanogenesis inhibition at a specific inhibitor concentration / inhibition at 10 µM / inhibition at 40 µM: B16F0, 48 h; for inhibition at 10 µM / inhibition at 40 µM: read-out: % Of melanogenesis inhibition at a specific inhibitor concentration
Procedure: The effect of the synthetic compounds on melanogenesis inhibition was performed in B16F0 murine melanoma cell line. The mouse model of human skin is often employed in skin biology and cancer research due to numerous similarities.[62] B16F0 murine melanoma cell line shares most of the melanogenesis with human melanocytes. Therefore, it is the proper model for screening the effect of potential inhibitors on melanogenesis.[63]

mushroom tyrosinase [2] = target: T1, mushroom tyrosinase (Agaricus bisporus, UniProt C7FF04); assay: Tyrosinase inhibition assay (diphenolase activity, L-DOPA substrate); type: biochemical; conditions: for IC50 / tyrosinase inhibition (in words): diphenolase activity; for IC50: L-DOPA 5 mM; for tyrosinase inhibition (in words): tested range of concentrations
T1 sequence (C7FF04 1-392): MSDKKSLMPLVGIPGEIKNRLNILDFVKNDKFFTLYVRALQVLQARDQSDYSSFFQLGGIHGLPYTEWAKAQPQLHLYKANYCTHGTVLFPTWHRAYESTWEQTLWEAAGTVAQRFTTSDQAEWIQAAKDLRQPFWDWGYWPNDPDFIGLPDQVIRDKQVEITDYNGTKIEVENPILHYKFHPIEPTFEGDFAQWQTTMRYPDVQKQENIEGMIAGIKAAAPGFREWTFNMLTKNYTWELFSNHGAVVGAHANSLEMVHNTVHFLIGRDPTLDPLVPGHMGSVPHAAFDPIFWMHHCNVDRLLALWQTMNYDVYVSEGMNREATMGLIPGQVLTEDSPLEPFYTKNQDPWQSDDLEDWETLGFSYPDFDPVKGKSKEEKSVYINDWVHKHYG
Procedure: The tyrosinase enzymatic assay was performed according to the protocol described previously in our papers[46–48] using L-3,4-dihydroxyphenylalanine (L-DOPA) (Sigma-Aldrich, Germany) as a substrate. L-DOPA was dissolved in an aqueous 0.15 mM phosphoric(V) acid solution, preventing its oxidation. […] Tyrosinase powder (Sigma-Aldrich, Germany) was dissolved in the assay buffer to obtain a concentration of 50,000 units/mL. This stock solution was divided into 50 μL aliquots, each one containing 2500 units of tyrosinase, and stored at −80 °C. Shortly before the assay, one of the aliquots was reconstituted in the assay buffer up to 3000 μL. First, 10 μL of the diluted enzyme solution was preincubated with samples at various concentrations for 5 min at 25 °C. Afterwards, 20 μL of L-DOPA solution was added.
The screening of tyrosinase activity of the synthetic compounds was performed according to the procedure previously reported in our articles.[46–48] As reported in most of the research dealing with tyrosinase inhibition, we employed mushroom tyrosinase, due to the lack of information and the limited availability of human tyrosinase.[59]^,[60] All the compounds were evaluated at different concentrations after incubation with tyrosinase in solution for 5 min at room temperature. Afterwards, the substrate L-DOPA was added to start the enzymatic reaction. The absorbance provided by the colourful derivative, dopachrome, was measured every 5 s for 10 min in order to monitor the progress of the reaction over time. […] (1) % of ENZactivity=Sampleslope/ECslope×100

[3] = tested on: B16F0 murine melanoma cell line; assay: cells; type: cell-based; conditions: 48 h
Procedure: B16F0 murine melanoma cell line was cultured in DMEM (Biowest, Nuaillé, France) medium supplemented with 100 U/ml streptomycin (Sigma-Aldrich, Taufkirchen, Germany), 100 U/ml penicillin (Sigma-Aldrich, Taufkirchen, Germany), and 10% foetal bovine serum (Sigma-Aldrich, Taufkirchen, Germany). Cells were maintained in 5% CO2 at 37 °C. Cells viability was estimated by MTT colorimetric assay as described by Bellei et al.[51] B16 cells were seeded into 96-well plate (4 × 10^3 cells/well) and incubated in the presence of the investigated compounds at various concentrations (1000, 400, 100, 40, 10, 1, 0.1 μM) for 48 h. Kojic acid and DMSO were used as controls. MTT was added into wells (0.625 mg/ml, Sigma-Aldrich, Taufkirchen, Germany) for the last 4 h. Then lysing buffer was added to dissolve insoluble formazan. The absorbance was measured (λ = 570 nm) using Thermo Lab Multiscan RC microplate reader.

[4] = tested on: B16F0 murine melanoma cell line; parameters: method as in PMID 30248509; conditions: previous paper; read-out: IC50 value for melanogenesis; cited from earlier work
mushroom tyrosinase [5] = target: T1, mushroom tyrosinase; conditions: cited from earlier work; for tyrosinase inhibition (in words): previous paper
[6] = n = 3, read-out: The maximum percentage of inhibition reached for poor inhibitors
[7] = Mus musculus, B16F0, n = 3, read-out: IC50 of melanin production
[8] = Mus musculus, B16F0, MTT, n = 3, read-out: IC50 of cell proliferation

| Structure (SMILES) | % Of melanogenesis inhibition at a specific inhibitor concentration ([1]; 10 µM) [%] | % Of melanogenesis inhibition at a specific inhibitor concentration ([1]; 40 µM) [%] | IC50 ([1]; 24 h) [µM] | inhibition at 250 µM (mushroom tyrosinase [2]; [6]) [%] | IC50 (mushroom tyrosinase [2]; n = 3) | IC50 [3] [µM] | also measured |
| --- | --- | --- | --- | --- | --- | --- | --- |
| C/C(=N\NC(N)=S)c1ccc(C(=O)N[C@@H](Cc2ccccc2)C(=O)N[C@@H](Cc2ccccc2)C(=O)N[C@@H](Cc2ccc(O)cc2)C(=O)O)cc1 [Compound 13, TSC3-FFY-OH] | 0 | 3 | 162 | 62 | > 150 µM | 49.8 |  |
| NC(=S)N/N=C/c1ccc(C(=O)N[C@@H](Cc2ccccc2)C(=O)N[C@@H](Cc2ccc(O)cc2)C(=O)N[C@@H](Cc2ccc(O)cc2)C(=O)O)cc1 [Compound 8, TSC1-FYY-OH] | 3 | 12 | 158 |  | 6.5 µM and 6.57 µM | 99 |  |
| NC(=S)N/N=C/c1ccc(C(=O)N[C@@H](Cc2ccccc2)C(=O)N[C@@H](Cc2c[nH]c3ccccc23)C(=O)N[C@@H](Cc2ccc(O)cc2)C(=O)O)cc1 [Compound 9, TSC1-FWY-OH] | 0 | 11 | 151 |  | 6.5 µM and 6.66 µM | 77.1 |  |
| NC(=S)N/N=C(\Cc1ccccc1)c1ccccc1 [thiosemicarbazone of (E)-2-phenylacetophenone] |  |  |  |  |  |  | IC50 [4]: < 2 µM; tyrosinase inhibition (in words) (mushroom tyrosinase [5]): did not inhibit tyrosinase at all |
| O=c1cc(CO)occ1O [Kojic acid, reference compound] |  |  |  |  |  |  | inhibition at 10 µM ([1]; Mus musculus, 10 µM): 1%; inhibition at 40 µM ([1]; Mus musculus, 40 µM): 12%; IC50 [1, 7]: 121 µM; IC50 [3, 8]: 162 µM |
| CC(C(=O)N[C@@H](Cc1ccccc1)C(=O)N[C@@H](Cc1c[nH]c2ccccc12)C(=O)N[C@@H](Cc1ccc(O)cc1)C(=O)O)c1cccc(C(=NNC(N)=S)c2ccccc2)c1 (mixture of isomers) [Compound 12, TSC2-FWY-OH] | 0 | 3 | 89.9 | 50 |  | 63.2 |  |
| CC(C(=O)O)c1cccc(/C(=N\NC(N)=S)c2ccccc2)c1 (centres unmarked) [Compound 2, thiosemicarbazone of ketoprofen] |  |  |  |  | > 150 µM |  | inhibition at 10 µM ([1]; Mus musculus, 10 µM): 28%; inhibition at 40 µM ([1]; Mus musculus, 40 µM): 77%; IC50 [1, 7]: 19.8 µM; inhibition at 150 µM (mushroom tyrosinase [2]; at 150 μM, n = 3, read-out: The maximum percentage of inhibition reached for poor inhibitors): 34%; tyrosinase inhibition (in words) (mushroom tyrosinase [2]): no significant inhibition towards tyrosinase; IC50 [3, 8]: 71.5 µM |
| C/C(=N\NC(N)=S)c1ccc(C(=O)N[C@@H](Cc2ccccc2)C(=O)N[C@@H](Cc2c[nH]c3ccccc23)C(=O)N[C@@H](Cc2ccc(O)cc2)C(=O)O)cc1 [Compound 15, TSC3-FWY-OH] | 5 | 20 | 67.1 |  | 25.1 ± 2.5 µM | 67.5 |  |
| NC(=S)N/N=C/c1ccc(C(=O)N[C@@H](Cc2ccccc2)C(=O)N[C@@H](Cc2ccccc2)C(=O)N[C@@H](Cc2ccc(O)cc2)C(=O)O)cc1 [Compound 7, TSC1-FFY-OH] | 1 | 10 | 138 | 77 | > 150 µM | 72.8 |  |
| C/C(=N\NC(N)=S)c1ccc(C(=O)N[C@@H](Cc2ccccc2)C(=O)N[C@@H](Cc2ccc(O)cc2)C(=O)N[C@@H](Cc2ccc(O)cc2)C(=O)O)cc1 [Compound 14, TSC3-FYY-OH] | 0 | 4 | 145 |  | 26.1 ± 9 µM | 83.7 |  |
| CC(C(=O)N[C@@H](Cc1ccccc1)C(=O)N[C@@H](Cc1ccc(O)cc1)C(=O)N[C@@H](Cc1ccc(O)cc1)C(=O)O)c1cccc(C(=NNC(N)=S)c2ccccc2)c1 (mixture of isomers) [Compound 11, TSC2-FYY-OH] | 0 | 0 |  | 36 |  | 77.2 |  |
| CC(=O)N[C@@H](Cc1ccccc1)C(=O)N[C@@H](Cc1c[nH]c2ccccc12)C(=O)N[C@@H](Cc1ccc(O)cc1)C(=O)O [Compound 6, Ac-FWY-OH] (Ac-Phe-Trp-Tyr-OH) | 0 | 4 | 141 |  |  | 81 | tyrosinase inhibition (in words) (mushroom tyrosinase [2]): no significant inhibition was observed in the tested range of concentrations |
| NC(=S)NN=C(c1ccccc1)c1ccccc1 [thiosemicarbazone of benzophenone] |  |  |  |  |  |  | IC50 [4]: < 2 µM; tyrosinase inhibition (in words) (mushroom tyrosinase [5]): efficient tyrosinase inhibitor |
| CC(C(=O)N[C@@H](Cc1ccccc1)C(=O)N[C@@H](Cc1ccccc1)C(=O)N[C@@H](Cc1ccc(O)cc1)C(=O)O)c1cccc(C(=NNC(N)=S)c2ccccc2)c1 (mixture of isomers) [Compound 10, TSC2-FFY-OH] | 0 | 4 | 146 | 45 |  | 77.4 |  |
| CC(=O)N[C@@H](Cc1ccccc1)C(=O)N[C@@H](Cc1ccc(O)cc1)C(=O)N[C@@H](Cc1ccc(O)cc1)C(=O)O [Compound 5, Ac-FYY-OH] (Ac-Phe-Tyr-Tyr-OH) | 0 | 2 | 175 |  |  | 96.6 | tyrosinase inhibition (in words) (mushroom tyrosinase [2]): no significant inhibition was observed in the tested range of concentrations |
| CC(=O)N[C@@H](Cc1ccccc1)C(=O)N[C@@H](Cc1ccccc1)C(=O)N[C@@H](Cc1ccc(O)cc1)C(=O)O [Compound 4, Ac-FFY-OH] (Ac-Phe-Phe-Tyr-OH) | 1 | 3 | 246 |  |  | 106 | IC50 (mushroom tyrosinase [5]; tyrosinase inhibition, read-out: IC50 found in the literature): 240 µM; tyrosinase inhibition (in words) (mushroom tyrosinase [2]): no significant inhibition was observed in the tested range of concentrations |
